{"source": "patent US12514832B2", "about": "“Methods for using low-dose colchicine after myocardial infarction” (INSTITUT DE CARDIOLOGIE DE MONTREAL, priority 2019, dated 2026)", "system": "patients recruited within 30 days after a myocardial infarction", "experiment": "COLCOT randomized, double-blind, placebo-controlled trial: clinical efficacy end points", "format": "in vivo, human", "details": "for risk of ischemic cardiovascular events / primary composite efficacy end point versus placebo (in words): 0.5 mg once daily; for Total primary endpoint events, Rate Ratio (95% CI), Negative binomial model: marginal rate ratio", "procedure": "We performed a randomized, double-blind trial involving patients recruited within 30 days after a myocardial infarction. The patients were randomly assigned to receive either low-dose colchicine (0.5 mg once daily) or placebo. A total of 4745 patients were enrolled; 2366 patients were assigned to the colchicine group, and 2379 to the placebo group. Patients were followed for a median of 22.6 months.\nThe primary efficacy end point was a composite of death from cardiovascular causes, resuscitated cardiac arrest, myocardial infarction, stroke, or urgent hospitalization for angina leading to coronary revascularization. The components of the primary end point and safety were also assessed.\nIn this randomized, double-blind, placebo-controlled, investigator-initiated trial, we assigned patients in a 1:1 ratio to receive either colchicine (at a dose of 0.5 mg once daily) or placebo. The trial protocol, available at NEJM.org, was designed by a trial steering committee. The protocol was approved by the institutional review board at each of the 167 centers in the 12 countries that participated in the trial (available at NEJM.org). All trial support activities, including project coordination, data management, site monitoring, and statistical oversight and analyses, were performed at the Montreal Health Innovations Coordinating Center. Potential trial end-point events were adjudicated by an independent clinical end-point committee composed of experienced cardiologists and neurologists who were unaware of the trial-group assignments. The trial was overseen by a data and safety monitoring board of independent experts. The trial medication and matching placebo were provided by Pharmascience.\nPatients were excluded if they had severe heart failure, a left ventricular ejection fraction of less than 35%, stroke within the previous 3 months, a type 2 index myocardial infarction, coronary-bypass surgery either within the previous 3 years or planned, a history of noncutaneous cancer within the previous 3 years, inflammatory bowel disease or chronic diarrhea, neuromuscular disease or a nontransient creatine kinase level that was greater than three times the upper limit of the normal range (unless due to infarction), clinically significant nontransient hematologic abnormalities, severe renal disease with a serum creatinine level that was greater than two times the upper limit of the normal range; severe hepatic disease, drug or alcohol abuse, current or planned long-term systemic glucocorticoid therapy, or a history of clinically significant sensitivity to colchicine. (Details regarding eligibility criteria are provided herein.)\nThe primary efficacy end point was a composite of death from cardiovascular causes, resuscitated cardiac arrest, myocardial infarction, stroke, or urgent hospitalization for angina leading to coronary revascularization in a time-to-event analysis.\nThe secondary end points consisted of the components of the primary efficacy end point; a composite of death from cardiovascular causes, resuscitated cardiac arrest, myocardial infarction, or stroke; and total mortality in time-to-event analyses. Coronary revascularization, hospitalization for heart failure, atrial fibrillation, and deep venous thrombosis or pulmonary embolus were prespecified as exploratory end points in the protocol.\nThe efficacy analyses were conducted with the use of positively adjudicated data and according to the intention-to-treat principle. The primary end point was compared between the two trial groups with the use of a log-rank test, and the hazard ratio from a Cox proportional-hazards model, with a 95% confidence interval, was calculated. A Cox proportional-hazards model with adjustment for important baseline characteristics was also used as prespecified in the protocol.\nThe analysis of the primary end point was repeated in the per-protocol population (i.e., patients without major protocol deviations). […]", "key": {"[1]": {"details": "ITT, N=2366, first and recurrent events"}, "[2]": {"details": "colchicine vs placebo, ITT, listed as colchicine"}, "[3]": {"details": "colchicine vs placebo, per-protocol population"}}, "data": [{"compound": "COc1cc2c(c(OC)c1OC)-c1ccc(OC)c(=O)cc1[C@@H](NC(C)=O)CC2", "note": "[Colchicine, colchicine]", "values": [{"measurement": "risk of ischemic cardiovascular events / primary composite efficacy end point versus placebo (in words)", "result": "statistically significant lower risk of ischemic cardiovascular events than placebo"}, {"measurement": "risk of ischemic cardiovascular events / primary composite efficacy end point versus placebo (in words)", "setting": "listed as colchicine", "result": "significantly lower percentage of patients with ischemic cardiovascular events than placebo"}, {"measurement": "Time to first primary endpoint, Adjusted Hazard Ratio (95% CI)", "setting": "Colchicine vs. Placebo, multivariable Cox regression adjusted for age, diabetes, prior revascularization, prior heart failure", "result": "0.78 (0.62-0.98)"}, {"measurement": "Atrial fibrillation, number of patients", "setting": "ITT, N=2366, 0.5 mg once daily", "result": 36}, {"measurement": "Atrial fibrillation, percent", "setting": "ITT, N=2366, 0.5 mg once daily", "result": 1.5, "unit": "%"}, {"measurement": "Death from cardiovascular causes, number of patients", "setting": "ITT, N=2366, 0.5 mg once daily", "result": 20}, {"measurement": "Death from cardiovascular causes, percent", "setting": "ITT, N=2366, 0.5 mg once daily", "result": 0.8, "unit": "%"}, {"measurement": "Death, number of patients", "setting": "ITT, N=2366, 0.5 mg once daily", "result": 43}, {"measurement": "Death, percent", "setting": "ITT, N=2366, 0.5 mg once daily", "result": 1.8, "unit": "%"}, {"measurement": "Deep venous thrombosis or pulmonary embolus, number of patients", "setting": "ITT, N=2366, 0.5 mg once daily", "result": 10}, {"measurement": "Deep venous thrombosis or pulmonary embolus, percent", "setting": "ITT, N=2366, 0.5 mg once daily", "result": 0.4, "unit": "%"}, {"measurement": "Myocardial infarction, number of patients", "setting": "ITT, N=2366, 0.5 mg once daily", "result": 89}, {"measurement": "Myocardial infarction, percent", "setting": "ITT, N=2366, 0.5 mg once daily", "result": 3.8, "unit": "%"}, {"measurement": "Primary composite end point, number of patients", "setting": "ITT, N=2366, 0.5 mg once daily", "result": 131}, {"measurement": "Primary composite end point, percent of patients", "setting": "ITT, N=2366, 0.5 mg once daily", "result": 5.5, "unit": "%"}, {"measurement": "Resuscitated cardiac arrest, number of patients", "setting": "ITT, N=2366, 0.5 mg once daily", "result": 5}, {"measurement": "Resuscitated cardiac arrest, percent", "setting": "ITT, N=2366, 0.5 mg once daily", "result": 0.2, "unit": "%"}, {"measurement": "Secondary composite end point (CV death, resuscitated cardiac arrest, MI, stroke), number of patients", "setting": "ITT, N=2366, 0.5 mg once daily", "result": 111}, {"measurement": "Secondary composite end point, percent", "setting": "ITT, N=2366, 0.5 mg once daily", "result": 4.7, "unit": "%"}, {"measurement": "Stroke, number of patients", "setting": "ITT, N=2366, 0.5 mg once daily", "result": 5}, {"measurement": "Stroke, percent", "setting": "ITT, N=2366, 0.5 mg once daily", "result": 0.2, "unit": "%"}, {"measurement": "Urgent hospitalization for angina leading to revascularization, number of patients", "setting": "ITT, N=2366, 0.5 mg once daily", "result": 25}, {"measurement": "Urgent hospitalization for angina leading to revascularization, percent", "setting": "ITT, N=2366, 0.5 mg once daily", "result": 1.1, "unit": "%"}, {"measurement": "Total number of primary endpoint events (first and recurrent)", "setting": "ITT, N=2366, 52949 patient-months of follow-up", "result": 154}, {"measurement": "Number of patients with 0 primary endpoint events", "setting": "[1]", "result": 2235}, {"measurement": "Number of patients with 1 primary endpoint event", "setting": "[1]", "result": 111}, {"measurement": "Number of patients with 2 primary endpoint events", "setting": "[1]", "result": 18}, {"measurement": "Number of patients with 3 primary endpoint events", "setting": "[1]", "result": 1}, {"measurement": "Number of patients with 4 primary endpoint events", "setting": "[1]", "result": 1}, {"measurement": "Rate of primary endpoint events per 100 patient-months", "setting": "[1]", "result": 0.29, "unit": "per 100 patient-months"}, {"measurement": "Atrial fibrillation, Hazard Ratio (95% CI)", "setting": "colchicine vs placebo, ITT", "result": "0.93 (0.59-1.46)"}, {"measurement": "Death from cardiovascular causes, Hazard Ratio (95% CI)", "setting": "colchicine vs placebo, ITT", "result": "0.84 (0.46-1.52)"}, {"measurement": "Death, Hazard Ratio (95% CI)", "setting": "colchicine vs placebo, ITT", "result": "0.98 (0.64-1.49)"}, {"measurement": "Deep venous thrombosis or pulmonary embolus, Hazard Ratio (95% CI)", "setting": "colchicine vs placebo, ITT", "result": "1.43 (0.54-3.75)"}, {"measurement": "Myocardial infarction, Hazard Ratio (95% CI)", "setting": "colchicine vs placebo, ITT", "result": "0.91 (0.68-1.21)"}, {"measurement": "Resuscitated cardiac arrest, Hazard Ratio (95% CI)", "setting": "colchicine vs placebo, ITT", "result": "0.83 (0.25-2.73)"}, {"measurement": "Secondary composite end point, Hazard Ratio (95% CI)", "setting": "colchicine vs placebo, ITT", "result": "0.85 (0.66-1.10)"}, {"measurement": "Stroke, Hazard Ratio (95% CI)", "setting": "colchicine vs placebo, ITT", "result": "0.26 (0.10-0.70)"}, {"measurement": "Total primary endpoint events, Hazard Ratio (95% CI), Andersen-Gill model", "setting": "colchicine vs placebo, ITT", "result": "0.69 (0.54; 0.88)"}, {"measurement": "Total primary endpoint events, Hazard Ratio (95% CI), WLW model 1st Event", "setting": "colchicine vs placebo, ITT", "result": "0.77 (0.61; 0.96)"}, {"measurement": "Total primary endpoint events, Hazard Ratio (95% CI), WLW model 2nd Event", "setting": "colchicine vs placebo, ITT", "result": "0.73 (0.48; 1.11)"}, {"measurement": "Total primary endpoint events, Hazard Ratio (95% CI), WLW model 3rd Event", "setting": "colchicine vs placebo, ITT", "result": "0.64 (0.37; 1.10)"}, {"measurement": "Total primary endpoint events, Hazard Ratio (95% CI), WLW model Average", "setting": "colchicine vs placebo, ITT", "result": "0.77 (0.61; 0.96)"}, {"measurement": "Urgent hospitalization for angina leading to revascularization, Hazard Ratio (95% CI)", "setting": "colchicine vs placebo, ITT", "result": "0.50 (0.31-0.81)"}, {"measurement": "Total primary endpoint events, Rate Ratio (95% CI), Negative binomial model", "setting": "colchicine vs placebo, ITT", "result": "0.66 (0.51; 0.86)"}, {"measurement": "Total primary endpoint events, Rate Ratio (95% CI), Negative binomial model", "setting": "[2]", "result": 0.66}, {"measurement": "Primary composite end point, Hazard Ratio (95% CI)", "setting": "colchicine vs placebo, ITT, time to first event", "result": 0.77}, {"measurement": "Death from cardiovascular causes, Hazard Ratio (95% CI)", "setting": "[2]", "result": 0.84}, {"measurement": "Myocardial infarction, Hazard Ratio (95% CI)", "setting": "[2]", "result": 0.91}, {"measurement": "Resuscitated cardiac arrest, Hazard Ratio (95% CI)", "setting": "[2]", "result": 0.83}, {"measurement": "Secondary composite end point, Hazard Ratio (95% CI)", "setting": "[2]", "result": 0.85}, {"measurement": "Stroke, Hazard Ratio (95% CI)", "setting": "[2]", "result": 0.26}, {"measurement": "Urgent hospitalization for angina leading to revascularization, Hazard Ratio (95% CI)", "setting": "[2]", "result": 0.50}, {"measurement": "Primary endpoint, hazard ratio", "setting": "colchicine vs placebo, men, per-protocol population", "result": "0.70 (0.52; 0.93)"}, {"measurement": "MI, Hazard Ratio (95% CI)", "setting": "[3]", "result": "0.84 (0.62-1.14)"}, {"measurement": "Primary endpoint, Hazard Ratio (95% CI)", "setting": "[3]", "result": "0.71 (0.56-0.90)"}, {"measurement": "Resuscitated cardiac arrest, Hazard Ratio (95% CI)", "setting": "[3]", "result": "1.00 (0.29-3.46)"}, {"measurement": "Stroke, Hazard Ratio (95% CI)", "setting": "[3]", "result": "0.26 (0.10-0.71)"}, {"measurement": "Urgent hospitalization for angina requiring revascularization, Hazard Ratio (95% CI)", "setting": "[3]", "result": "0.47 (0.28-0.78)"}, {"measurement": "Primary endpoint, Hazard Ratio (95% CI)", "setting": "colchicine vs placebo, per-protocol population, listed as colchicine", "result": 0.71}, {"measurement": "Primary efficacy composite endpoint, Hazard ratio", "setting": "colchicine vs placebo, subgroup Active smoker", "result": 0.93}]}]}
